{
  "source": "patent US20100120700A1",
  "about": "“METHODS AND COMPOSITIONS FOR TREATING CERVICAL CANCER” (priority 2000, published 2010)",
  "target": "T1, NeDLG domain 1, 2 (Homo sapiens, UniProt Q92796)",
  "T1 construct": "the DNA portion cloned represents the PDZ domains and the cDNA portion located between individual domains; made in house; host or cells: E. coli (DH5alpha, BL21 or JM109)",
  "T1 sequence (Q92796 129-315 limits assumed)": "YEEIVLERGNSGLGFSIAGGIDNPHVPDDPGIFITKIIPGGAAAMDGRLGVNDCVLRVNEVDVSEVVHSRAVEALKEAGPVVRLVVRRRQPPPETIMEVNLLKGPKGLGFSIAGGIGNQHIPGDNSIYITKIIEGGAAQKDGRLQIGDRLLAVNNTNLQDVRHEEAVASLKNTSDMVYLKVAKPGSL",
  "assay": "G assay PDZ-PL binding",
  "conditions": "peptide 10 uM, protein 5",
  "protocol": "(1) A PDZ-domain polypeptide is bound to a surface, e.g. a protein binding surface. In a preferred embodiment, a GST/PDZ fusion protein containing one or more PDZ domains is bound to a polystyrene 96-well plate. […] In one embodiment, the GST/PDZ fusion protein is bound via an anti-GST antibody that is coated onto the 96-well plate. Adequate binding to the plate can be achieved when: • a. 100 uL per well of 5 ug/mL goat anti-GST polyclonal antibody (Pierce) in PBS is added to a polystyrene 96-well plate (e.g., Num Polysorb) at 4° C. for 12 hours. • b. The plate is blocked by addition of 200 uL per well of PBS/BSA for 2 hours at 4° C. • c. The plate is washed 3 times with PBS. • d. 50 uL per well of 5 ug/mL GST/PDZ fusion protein) or, as a negative control, GST polypeptide alone (i.e. not a fusion protein) in PBS/BSA is added to the plate for 2 hours at 4° C. • e. The plate is again washed 3 times with PBS.\n(2) Biotinylated PL peptides are allowed to react with the surface by addition of 50 uL per well of 20 uM solution of the biotinylated peptide in PBS/BSA for 10 minutes at 4° C., followed by an additional 20 minute incubation at 25° C.\n(3) The binding of the biotinylated peptide to the GST/PDZ fusion protein surface can be detected using a variety of methods and detectors known to one of skill in the art. In one embodiment, 100 uL per well of 0.5 ug/mL streptavidin-horse radish peroxidase (HRP) conjugate dissolved in BSA/PBS is added and allowed to react for 20 minutes at 4° C. The plate is then washed 5 times with 50 mM Tris pH 8.0 containing 0.2% Tween 20, and developed by addition of 100 uL per well of HRP-substrate solution (TMB, Dako) for 20 minutes at room temperature (RT). The reaction of the HRP and its substrate is terminated by addition of 100 uL per well of 1M sulfuric acid, and the absorbance of each well of the plate is read at 450 nm.\n(4) Specific binding of a PL peptide and a PDZ domain polypeptide is determined by comparing the signal from the well(s) in which the PL peptide and PDZ domain polypeptide are combined, with the background signal(s). The background signal is the signal found in the negative control(s). Typically a specific or selective reaction will be at least twice background signal, more typically more than 5 times background, and most typically 10 or more times the background signal. In addition, a statistically significant reaction will involve multiple measurements of the reaction with the signal and the background differing by at least two standard errors, more typically four standard errors, and most typically six or more standard errors. Correspondingly, a statistical test (e.g. a T-test) comparing repeated measurements of the signal with-repeated measurements of the background will result in a p-value<0.05, more typically a p-value<0.01, and most typically a p-value<0.001 or less. As noted, in an embodiment of the “G” assay, the signal from binding of a given PL peptide to immobilized (surface bound) GST polypeptide alone is one suitable negative control (sometimes referred to as “B 1”). Because all measurement are done in multiples (i.e. at least duplicate) the arithmetic mean (or, equivalently, average.) of several measurements is used in determining the binding, and the standard error of the mean is used in determining the probable error in the measurement of the binding. The standard error of the mean of N measurements equals the square root of the following: the sum of the squares of the difference between each measurement and the mean, divided by the product of (N) and (N−1). Thus, in one embodiment, specific binding of the PDZ protein to the platebound peptide is determined by comparing the mean signal (“mean S”) and standard error of the signal (“SE”) for a particular PL-PDZ combination with the mean B1. […]",
  "note": "“And” between values parts separate entries of the source, which are not always exact repeats. Equal entries are not always repeated.",
  "data": [
    {"substance": "20 mer peptide corresponding to the C-terminus of HPV16 E6 (PDZ ligand), biotinylated in binding assays; ends SSRTRRETQL (SEQ ID NO: 13) [HPV E6 #16]", "values": [
      {"measurement": "Ave OD", "setting": "A450 nm", "result": "3.401 and 3.118"},
      {"measurement": "OD S/N", "setting": "vs GST only well", "result": "19.83 and 17.13"}
    ]}
  ]
}
